Patent US9732075B2, “Benzimidazole-proline derivatives” (IDORSIA PHARMACEUTICALS LTD, priority 2012, dated 2017)
pIC50: −log10 of the molar value.

What was measured:
human orexin-1 receptor = human orexin-1 receptor (Homo sapiens (Human), UniProt O43613); experiment: In vitro assay: intracellular calcium measurements (FLIPR), antagonistic activity; type: cell-based; conditions: CHO cells expressing human orexin-1 receptor, orexin-A agonist, geometric mean, read-out: IC50 Ox1
How it was run: (§1)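 Orexin-A-evoked calcium rise (3 nM final, roughly EC70) was recorded with fluo-4 in recombinant CHO cells, human receptor subtype 1 or 2.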

human orexin-2 receptor = human orexin-2 receptor (Homo sapiens (Human), UniProt O43614); experiment: as above; type: cell-based; conditions: CHO cells expressing human orexin-2 receptor, orexin-A agonist, geometric mean, read-out: IC50 Ox2
Chain of human orexin-2 receptor (O43614 whole entry): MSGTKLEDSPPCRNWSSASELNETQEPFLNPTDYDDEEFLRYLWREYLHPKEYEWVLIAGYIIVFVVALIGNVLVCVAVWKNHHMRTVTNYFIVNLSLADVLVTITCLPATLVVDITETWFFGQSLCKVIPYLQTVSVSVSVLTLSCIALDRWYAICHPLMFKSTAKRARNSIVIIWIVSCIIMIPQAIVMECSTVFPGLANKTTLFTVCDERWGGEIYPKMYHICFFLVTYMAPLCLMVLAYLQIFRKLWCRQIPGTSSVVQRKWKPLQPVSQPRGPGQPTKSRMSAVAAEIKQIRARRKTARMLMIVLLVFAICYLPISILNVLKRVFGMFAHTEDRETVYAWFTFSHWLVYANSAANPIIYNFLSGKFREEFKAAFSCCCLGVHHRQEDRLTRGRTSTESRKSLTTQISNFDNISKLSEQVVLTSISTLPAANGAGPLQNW
How it was run: as §1

Chain of human orexin-1 receptor (O43613 whole entry): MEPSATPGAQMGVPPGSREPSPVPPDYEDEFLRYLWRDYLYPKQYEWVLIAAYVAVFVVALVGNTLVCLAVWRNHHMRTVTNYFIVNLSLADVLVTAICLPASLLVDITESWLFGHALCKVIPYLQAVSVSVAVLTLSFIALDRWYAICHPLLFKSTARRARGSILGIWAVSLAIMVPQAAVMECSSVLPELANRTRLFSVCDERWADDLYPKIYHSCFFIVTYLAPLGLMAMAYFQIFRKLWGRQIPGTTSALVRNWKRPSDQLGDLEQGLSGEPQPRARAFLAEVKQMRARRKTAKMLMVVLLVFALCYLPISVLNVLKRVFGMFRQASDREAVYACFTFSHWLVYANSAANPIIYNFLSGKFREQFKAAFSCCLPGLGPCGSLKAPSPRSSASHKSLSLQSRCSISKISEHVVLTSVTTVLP

| SMILES | pIC50 (human orexin-1 receptor) | pIC50 (human orexin-2 receptor) |
| --- | --- | --- |
| C=C1C[C@@H](c2nc3cccc(C)c3[nH]2)N(C(=O)c2nc(C)sc2-c2cccc(C)c2)C1 [Ex. 6.101] | 8.00 | 9.05 |
| C=C1C[C@@H](c2nc3cccc(C)c3[nH]2)N(C(=O)c2nc(C)sc2-c2ccc(OC)nc2)C1 [Ex. 6.103] | 6.74 | 8.22 |
| C=C1C[C@@H](c2nc3cccc(C)c3[nH]2)N(C(=O)c2nc(C)ccc2-n2cccn2)C1 [Ex. 6.105] | 5.97 | 7.11 |
| C=C1C[C@@H](c2nc3cccc(C)c3[nH]2)N(C(=O)c2nc(C)sc2-c2ccc(F)c(Br)c2)C1 [Ex. 6.110] | 7.82 | 9.00 |
| C=C1C[C@@H](c2nc3cccc(C)c3[nH]2)N(C(=O)c2nc(C)sc2-c2cccc(C(F)(F)F)c2)C1 [Ex. 6.112] | 7.82 | 9.15 |
| C=C1C[C@@H](c2nc3cccc(C)c3[nH]2)N(C(=O)c2nc(C)sc2-c2ccc(Cl)c(Cl)c2)C1 [Ex. 6.113] | 8.30 | 9.00 |
| C=C1C[C@@H](c2nc3cccc(C)c3[nH]2)N(C(=O)c2nc(C)sc2-c2cccc(OC)c2)C1 [Ex. 6.114] | 7.80 | 9.15 |
| C=C1C[C@@H](c2nc3ccc(Cl)c(C)c3[nH]2)N(C(=O)c2nc(C)sc2-c2ccc(Br)cc2)C1 [Ex. 6.116] | 7.85 | 8.52 |
| C=C1C[C@@H](c2nc3ccc(Cl)c(C)c3[nH]2)N(C(=O)c2nc(C)sc2-c2ccc(F)cc2)C1 [Ex. 6.118] | 7.68 | 8.40 |
| C=C1C[C@@H](c2nc3ccc(Cl)c(C)c3[nH]2)N(C(=O)c2nc(C)sc2-c2ccc(Cl)cc2)C1 [Ex. 6.119] | 7.85 | 8.52 |
| C=C1C[C@@H](c2nc3ccc(Cl)c(C)c3[nH]2)N(C(=O)c2nc(C)sc2-c2cccc(C(F)(F)F)c2)C1 [Ex. 6.120] | 8.10 | 9.22 |
| C=C1C[C@@H](c2nc3ccc(Cl)c(C)c3[nH]2)N(C(=O)c2nc(C)sc2-c2cccc(OC)c2)C1 [Ex. 6.121] | 9.00 | 9.30 |
| C=C1C[C@@H](c2nc3ccc(Cl)c(C)c3[nH]2)N(C(=O)c2nc(C)sc2-c2cccc(C)c2)C1 [Ex. 6.122] | 9.05 | 9.22 |
| C=C1C[C@@H](c2nc3ccc(Cl)c(C)c3[nH]2)N(C(=O)c2nc(C)sc2-c2cccc(Br)c2)C1 [Ex. 6.123] | 8.70 | 9.15 |
| C=C1C[C@@H](c2nc3ccc(Cl)c(C)c3[nH]2)N(C(=O)c2nc(C)sc2-c2ccc(F)c(Br)c2)C1 [Ex. 6.125] | 8.70 | 9.10 |
| C=C1C[C@@H](c2nc3ccc(Cl)c(C)c3[nH]2)N(C(=O)c2nc(C)sc2-c2ccc(Cl)c(Cl)c2)C1 [Ex. 6.126] | 8.52 | 9.10 |
| C=C1C[C@@H](c2nc3ccc(Cl)c(C)c3[nH]2)N(C(=O)c2cc(Cl)ccc2-n2nccn2)C1 [Ex. 6.128] | 7.70 | 9.00 |
| C=C1C[C@@H](c2nc3ccc(Cl)c(C)c3[nH]2)N(C(=O)c2cc(C(F)(F)F)ccc2-n2nccn2)C1 [Ex. 6.129] | 6.67 | 7.41 |
| C=C1C[C@@H](c2nc3ccc(Cl)c(C)c3[nH]2)N(C(=O)c2cc(C)c(C)cc2-n2nccn2)C1 [Ex. 6.130] | 7.96 | 9.22 |
| C=C1C[C@@H](c2nc3ccc(Cl)c(C)c3[nH]2)N(C(=O)c2cc(C)ccc2-n2cccn2)C1 [Ex. 6.134] | 7.12 | 8.00 |
| C=C1C[C@@H](c2nc3ccc(OC)cc3[nH]2)N(C(=O)c2cc(Cl)ccc2-n2nccn2)C1 [Ex. 6.136] | 6.12 | 8.40 |
| C=C1C[C@@H](c2nc3ccc(OC)cc3[nH]2)N(C(=O)c2nc(C)ccc2-n2cccn2)C1 [Ex. 6.138] | < 5.16 | 7.47 |
| C=C1C[C@@H](c2nc3cc(C(F)(F)F)c(Cl)cc3[nH]2)N(C(=O)c2nc(C)sc2-c2ccc(C)c(C)c2)C1 [Ex. 6.142] | 7.77 | 7.66 |
| C=C1CN(C(=O)c2nc(N(C)C)sc2-c2ccc(C)c(C)c2)C(C)(c2nc3cc(OC)ccc3[nH]2)C1 (stereo not shown) [Ex. 6.144] | 7.82 | 7.25 |
| C=C1CN(C(=O)c2nc(C)sc2-c2ccc(OC)cc2)C(C)(c2nc3cc(OC)ccc3[nH]2)C1 (stereo not shown) [Ex. 6.147] | 7.89 | 7.47 |
| C=C1CN(C(=O)c2cc(Cl)ccc2-n2nccn2)C(C)(c2nc3cc(OC)ccc3[nH]2)C1 (stereo not shown) [Ex. 6.157] | 7.15 | 7.68 |
| C=C1CN(C(=O)c2cc(C)c(C)cc2-n2nccn2)C(C)(c2nc3cc(OC)ccc3[nH]2)C1 (stereo not shown) [Ex. 6.159] | 7.96 | 8.00 |
| C=C1C[C@@H](c2nc3cc(C(C)(C)C)ccc3[nH]2)N(C(=O)c2cc(F)ccc2-n2nccn2)C1 [Ex. 6.160] | 6.49 | 8.10 |
| C=C1C[C@@H](c2nc3cc(C(C)(C)C)ccc3[nH]2)N(C(=O)c2cc(Cl)ccc2-n2nccn2)C1 [Ex. 6.161] | 7.29 | 8.52 |
| C=C1C[C@@H](c2nc3cc(C(C)(C)C)ccc3[nH]2)N(C(=O)c2ccccc2-n2nccn2)C1 [Ex. 6.162] | 6.48 | 8.15 |

Continued by rising pIC50 (human orexin-1 receptor), values first:

| pIC50 (human orexin-1 receptor) | pIC50 (human orexin-2 receptor) | SMILES |
| --- | --- | --- |
| 5.31 | 7.64 | C=C1C[C@@H](c2nc3ccc(OC)cc3[nH]2)N(C(=O)c2cc(C)ccc2-n2cccn2)C1 [Ex. 6.137] |
| 6.05 | 8.05 | C=C1C[C@@H](c2nc3ccc(OC)cc3[nH]2)N(C(=O)c2c(-n3nccn3)ccc(C)c2F)C1 [Ex. 6.141] |
| 6.18 | 8.00 | C=C1C[C@@H](c2nc3ccc(OC)cc3[nH]2)N(C(=O)c2cc(OC)ccc2-n2nccn2)C1 [Ex. 6.140] |
| 6.19 | 6.98 | C=C1CN(C(=O)c2ccccc2-n2nccn2)C(C)(c2nc3cc(OC)ccc3[nH]2)C1 (stereo not shown) [Ex. 6.155] |
| 6.38 | 8.15 | C=C1C[C@@H](c2nc3cccc(C)c3[nH]2)N(C(=O)c2cc(C)c(C)cc2-n2nccn2)C1 [Ex. 6.108] |
| 6.44 | 7.49 | C=C1C[C@@H](c2nc3cccc(C)c3[nH]2)N(C(=O)c2cc(Cl)ccc2-n2nccn2)C1 [Ex. 6.102] |
| 6.48 | 8.05 | C=C1C[C@@H](c2nc3cccc(C)c3[nH]2)N(C(=O)c2nc(C)ccc2-n2nccn2)C1 [Ex. 6.115] |
| 6.57 | 7.85 | C=C1C[C@@H](c2nc3cccc(C)c3[nH]2)N(C(=O)c2cc(OC)ccc2-n2nccn2)C1 [Ex. 6.111] |
| 6.59 | 7.14 | C=C1C[C@@H](c2nc3cc(C(C)(C)C)ccc3[nH]2)N(C(=O)c2c(-n3nccn3)ccc(OC)c2F)C1 [Ex. 6.163] |
| 6.66 | 7.04 | C=C1CN(C(=O)c2ccccc2-c2ccccc2)C(C)(c2nc3cc(OC)ccc3[nH]2)C1 (stereo not shown) [Ex. 6.150] |
| 6.86 | 9.22 | C=C1C[C@@H](c2nc3ccc(OC)cc3[nH]2)N(C(=O)c2cc(C)c(C)cc2-n2nccn2)C1 [Ex. 6.139] |
| 6.95 | 8.15 | C=C1C[C@@H](c2nc3cccc(C)c3[nH]2)N(C(=O)c2nc(C)sc2-c2ccc(Cl)cc2)C1 [Ex. 6.109] |
| 7.00 | 8.30 | C=C1C[C@@H](c2nc3cccc(C)c3[nH]2)N(C(=O)c2nc(C)sc2-c2ccc(F)cc2)C1 [Ex. 6.106] |
| 7.08 | 8.30 | C=C1C[C@@H](c2nc3ccc(Cl)c(C)c3[nH]2)N(C(=O)c2nc(C)ccc2-n2cccn2)C1 [Ex. 6.135] |
| 7.13 | 7.80 | C=C1C[C@@H](c2nc3cccc(C)c3[nH]2)N(C(=O)c2nc(C)sc2-c2cc(C)cc(C)c2)C1 [Ex. 6.107] |
| 7.23 | 7.05 | C=C1CN(C(=O)c2ccccc2-c2ccc(C)c(C)c2)C(C)(c2nc3cc(OC)ccc3[nH]2)C1 (stereo not shown) [Ex. 6.149] |
| 7.24 | 7.46 | C=C1CN(C(=O)c2cc(OC)ccc2-n2nccn2)C(C)(c2nc3cc(OC)ccc3[nH]2)C1 (stereo not shown) [Ex. 6.158] |
| 7.47 | 7.92 | C=C1CN(C(=O)c2cc(C)ccc2-n2nccn2)C(C)(c2nc3cc(OC)ccc3[nH]2)C1 (stereo not shown) [Ex. 6.156] |
| 7.72 | 8.52 | C=C1C[C@@H](c2nc3ccc(Cl)c(C)c3[nH]2)N(C(=O)c2nc(C)sc2-c2ccc(OC)nc2)C1 [Ex. 6.117] |
| 7.72 | 7.40 | C=C1CN(C(=O)c2nc(C)sc2-c2ccc(C)cc2)C(C)(c2nc3cc(OC)ccc3[nH]2)C1 (stereo not shown) [Ex. 6.148] |
| 7.77 | 8.40 | C=C1C[C@@H](c2nc3ccc(Cl)c(C)c3[nH]2)N(C(=O)c2nc(C)ccc2-n2nccn2)C1 [Ex. 6.127] |
| 7.82 | 8.40 | C=C1C[C@@H](c2nc3ccc(Cl)c(C)c3[nH]2)N(C(=O)c2nc(C)sc2-c2cc(C)cc(C)c2)C1 [Ex. 6.124] |
| 7.89 | 9.10 | C=C1C[C@@H](c2nc3cccc(C)c3[nH]2)N(C(=O)c2nc(C)sc2-c2cccc(Br)c2)C1 [Ex. 6.104] |
| 7.89 | 8.40 | C=C1C[C@@H](c2nc3ccc(Cl)c(C)c3[nH]2)N(C(=O)c2c(-n3nccn3)ccc(C)c2F)C1 [Ex. 6.132] |
| 7.89 | 7.49 | C=C1CN(C(=O)c2nc(C)sc2-c2cccc(C)c2)C(C)(c2nc3cc(OC)ccc3[nH]2)C1 (stereo not shown) [Ex. 6.143] |
| 8.05 | 9.30 | C=C1C[C@@H](c2nc3ccc(Cl)c(C)c3[nH]2)N(C(=O)c2cc(OC)ccc2-n2nccn2)C1 [Ex. 6.131] |
| 8.10 | 7.80 | C=C1CN(C(=O)c2nc(C)sc2-c2cccc(Cl)c2)C(C)(c2nc3cc(OC)ccc3[nH]2)C1 (stereo not shown) [Ex. 6.153] |
| 8.30 | 7.70 | C=C1CN(C(=O)c2nc(N(C)C)sc2-c2cccc(Cl)c2)C(C)(c2nc3cc(OC)ccc3[nH]2)C1 (stereo not shown) [Ex. 6.152] |
| 8.52 | 8.70 | C=C1C[C@@H](c2nc3ccc(Cl)c(C)c3[nH]2)N(C(=O)c2c(-n3nccn3)ccc(OC)c2F)C1 [Ex. 6.133] |
